From patent EP4768484A1, “HETEROCYCLIC FUSED RING COMPOUND, AND COMPOSITION AND USE THEREOF” (Shenzhen TargetRx, Inc., priority 2023, dated 2025)

How the values were obtained:
Assay type in all cases: cell-based
[1] = tested on: K562 cells; experiment: Cell growth inhibitory activity assay (CellTiter-Glo), K562 cells; conditions: Homo sapiens, 72 h, CTG cell viability
Method in brief: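 K562 cells in logarithmic growth were counted, diluted and plated in 96-well plates, with medium-only blanks and a separate T0 plate read by CTG the following day. After overnight incubation, graded compound concentrations were added for 72 h, with 0.5% DMSO wells as growth controls. Luminescence was read on a Biotek cytation3.0, and IC50 came from nonlinear fitting in GraphPad Prism 7.0.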

[2] = target: T1, Ba/F3 BCR-ABL1 WT (Homo sapiens, UniProt P00519+P11274); experiment: Cell growth inhibitory activity assay (CellTiter-Glo), Ba/F3 BCR-ABL1 WT cells; conditions: 72 h, CTG cell viability
T1 construct: BCR (N-terminal fusion partner of the oncoprotein); expressed in transfected cells; host or cells: Ba/F3 (lentiviral transduction, monoclonal line)
Method in brief: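 Ba/F3 parental cells or Ba/F3 lines lentivirally transduced with WT or mutant BCR-ABL1, seeded overnight then exposed to serially diluted compound 72 h at 37 °C, 5% CO2. Viability by CellTiter-Glo ATP luminescence with a T0 plate; 0.5% DMSO controls; IC50 from four-parameter nonlinear fit.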

[3] = target: T2, Ba/F3 BCR-ABL1 T315I (Homo sapiens, UniProt P00519+P11274, T315I); experiment: Cell growth inhibitory activity assay (CellTiter-Glo), Ba/F3 BCR-ABL1 T315I cells; conditions: 72 h, CTG cell viability
T2 construct: BCR (N-terminal fusion partner of the oncoprotein); expressed in transfected cells; host or cells: Ba/F3 (lentiviral transduction, monoclonal line)
Method in brief: (§1)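 Luminescent ATP read-out (CellTiter-Glo) after 72 h compound exposure at 37 °C, 5% CO2. Cells: monoclonal Ba/F3 lentivirally engineered with mutant BCR-ABL1, or parental Ba/F3. A T0 plate read the day after seeding; 0.5% DMSO wells as uninhibited growth control. IC50 via variable-slope logistic fit of % inhibition.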

[4] = tested on: Ba/F3 parental cells; experiment: Cell growth inhibitory activity assay (CellTiter-Glo), Ba/F3 parental cells; conditions: Mus musculus, BaF3, 72 h, CTG cell viability, read-out: IC50 Ba/F3 BCR-ABL1 Parental
Method in brief: as §1

| SMILES | IC50 [1] | IC50 [2] | IC50 [3] | IC50 [4] |
| --- | --- | --- | --- | --- |
| C[C@@H]1COCc2nc3cc(C(=O)Nc4ccc(OC(F)(F)Cl)cc4)cc(-c4cnc5c(c4)-c4nn(-c6ncc7c(ccn7C)n6)cc4C5)c3n21 [T-84, (R)-N-(4-(chlorodifluoromethoxy)phenyl)-4-methyl-6-(2-(5-methyl-5H-pyrrolo[3,2-d]pyrimidin-2-yl)-2,4-dihydropyrazolo[3',4':3,4]cyclopenta[1,2-b]pyridin-7-yl)-3,4-dihydro-1H-benzo[4,5]imidazo[2,1-c][1,4]oxazine-8-carboxamide] | ≤ 5 nM | ≤ 5 nM | ≤ 5 nM | > 1000 nM |
| C[C@@H]1COCc2nc3cc(C(=O)Nc4ccc(OC(F)(F)Cl)cc4)cc(-c4cnc5c(c4)-c4nn(-c6ncc7ccn(C)c7n6)cc4C5)c3n21 [T-85, (R)-N-(4-(chlorodifluoromethoxy)phenyl)-4-methyl-6-(2-(7-methyl-7H-pyrrolo[2,3-d]pyrimidin-2-yl)-2,4-dihydropyrazolo[3',4':3,4]cyclopenta[1,2-b]pyridin-7-yl)-3,4-dihydro-1H-benzo[4,5]imidazo[2,1-c][1,4]oxazine-8-carboxamide] | ≤ 5 nM | ≤ 5 nM | ≤ 5 nM | > 1000 nM |
| C[C@@H]1COCc2nc3cc(C(=O)Nc4ccc(OC(F)(F)Cl)cc4)cc(-c4cnc5c(c4)-c4nn(-c6ncc7cccnc7n6)cc4C5)c3n21 [T-86, (R)-N-(4-(chlorodifluoromethoxy)phenyl)-4-methyl-6-(2-(pyrido[2,3-d]pyrimidin-2-yl)-2,4-dihydropyrazolo[3',4':3,4]cyclopenta[1,2-b]pyridin-7-yl)-3,4-dihydro-1H-benzo[4,5]imidazo[2,1-c][1,4]oxazine-8-carboxamide] | ≤ 5 nM | ≤ 5 nM | ≤ 5 nM | > 1000 nM |
| C[C@@H]1COCc2nc3cc(C(=O)Nc4ccc(OC(F)(F)Cl)cc4)cc(-c4cnc5c(c4)-c4nn(-c6nccc(-c7cccnc7)n6)cc4C5)c3n21 [T-87, (R)-N-(4-(chlorodifluoromethoxy)phenyl)-4-methyl-6-(2-(4-(pyridin-3-yl)pyrimidin-2-yl)-2,4-dihydropyrazolo[3',4':3,4]cyclopenta[1,2-b]pyridin-7-yl)-3,4-dihydro-1H-benzo[4,5]imidazo[2,1-c][1,4]oxazine-8-carboxamide] | ≤ 5 nM | ≤ 5 nM | ≤ 5 nM | > 1000 nM |
| C[C@@H]1COCc2nc3cc(C(=O)Nc4ccc(OC(F)(F)Cl)cc4)cc(-c4cnc5c(c4)-c4nn(-c6nccc(N7CCOCC7)n6)cc4C5)c3n21 [T-88, (R)-N-(4-(chlorodifluoromethoxy)phenyl)-4-methyl-6-(2-(4-morpholinopyrimidin-2-yl)-2,4-dihydropyrazolo[3',4':3,4]cyclopenta[1,2-b]pyridin-7-yl)-3,4-dihydro-1H-benzo[4,5]imidazo[2,1-c][1,4]oxazine-8-carboxamide] | ≤ 5 nM | ≤ 5 nM | ≤ 5 nM | > 1000 nM |
| C[C@@H]1COCc2nc3cc(C(=O)Nc4ccc(OC(F)(F)Cl)cc4)cc(-c4cnc5c(c4)-c4nn(-c6nccc(-c7ccc(F)cc7)n6)cc4C5)c3n21 [T-89, (R)-N-(4-(chlorodifluoromethoxy)phenyl)-6-(2-(4-(4-fluorophenyl)pyrimidin-2-yl)-2,4-dihydropyrazolo[3',4':3,4]cyclopenta[1,2-b]pyridin-7-yl)-4-methyl-3,4-dihydro-1H-benzo[4,5]imidazo[2,1-c][1,4]oxazine-8-carboxamide] | ≤ 5 nM | ≤ 5 nM | ≤ 5 nM | > 1000 nM |
| C[C@@H]1COCc2nc3cc(C(=O)Nc4ccc(OC(F)(F)Cl)cc4)cc(-c4cnc5c(c4)-c4nn(-c6nccc(-c7ccn(C)n7)n6)cc4C5)c3n21 [T-90, (R)-N-(4-(chlorodifluoromethoxy)phenyl)-4-methyl-6-(2-(4-(1-methyl-1H-oyrazol-3-yl)pyrimidin-2-yl)-2,4-dihydropyrazolo[3',4':3,4]cyclopenta[1,2-b]pyridin-7-yl)-3,4-dihydro-1H-benzo[4,5]imidazo[2,1-c][1,4]oxazine-8-carboxamide] | ≤ 5 nM | ≤ 5 nM | ≤ 5 nM | > 1000 nM |
